This note sets out measurements from patent US20070117813A1 (priority 2003, published 2007).

Structures are written as SMILES. Read-outs that look alike come from different tables or passages of the source.

The subject of experiment [1] is Phytophthora infestans. The format is in vivo. The conditions noted are these: tomato plants, protective spray, assessed after 6 days.
Experiment [2] deals with Plasmopara viticola. The experiment in a line: Activity against peronospora of grapevines caused by Plasmopara viticola. The note with it: grapevines cultivar Riesling. The format is in vivo. As to the method: The active compounds, separately or jointly, were prepared as a stock solution comprising 0.25% by weight of active compound in acetone or DMSO. 1% by weight of the emulsifier Uniperol® EL (wetting agent having emulsifying and dispersant action based on ethoxylated alkylphenols) was added to this solution, and the mixture was diluted with water to the desired concentration.
Use example 2—Activity against peronospora of grapevines caused by Plasmopara viticola
Leaves of potted grapevines of the cultivar “Riesling” were sprayed to runoff point with an aqueous suspension having the concentration of active compounds stated below. The next day, the undersides of the leaves were inoculated with an aqueous zoospore suspension of Plasmopara viticola. The grapevines were then initially placed in a water-vapor-saturated chamber at 24° C. for 48 hours and then in a greenhouse at temperatures between 20 and 30° C. for 5 days. After this period of time, the plants were, to promote sporangiophore eruption, again placed in a humid chamber for 16 hours. The extent of the development of the infection on the undersides of the leaves was then determined visually.
Evaluation was carried out analogously to example 1.

For `CC(C)(C)C(O)(CCc1ccc(Cl)cc1)Cn1cncn1` (racemic) [II, (R,S)-1-(4-chlorophenyl)-4,4-dimethyl-3-(1H-1,2,4-triazol-1-ylmethyl)pentan-3-ol], the “Efficacy in % of the untreated control” value is given as 0% in experiment [1] (16 ppm in the spray liquor), 0% in experiment [1] (250 ppm in the spray liquor), 0% in experiment [2] (1 ppm in the spray liquor) and 28% in experiment [2] (4 ppm in the spray liquor).
For the molecule `CC1CCN(c2c(-c3c(F)cc(F)cc3F)c(Cl)nc3ncnn23)CC1` [I, 5-chloro-7-(4-methylpiperidin-1-yl)-6-(2,4,6-trifluorophenyl)-[1,2,4]triazolo[1,5-a]pyrimidine], the results for the “Efficacy in % of the untreated control” value in experiment [1] (63 ppm in the spray liquor), in experiment [2] (1 ppm in the spray liquor) and in experiment [2] (4 ppm in the spray liquor) were 9%, 4% and 52%, respectively.
As to `CC1CCN(c2c(-c3c(F)cccc3Cl)c(Cl)nc3ncnn23)CC1` [comparative A], in experiment [1] (63 ppm in the spray liquor), the “Efficacy in % of the untreated control” value was determined as 0%.
Same read-out and setting: in the case of `C[C@H](Nc1c(-c2c(F)cc(F)cc2F)c(Cl)nc2ncnn12)C(F)(F)F` [comparative B] it was 9%.
